Source: ChEMBL document CHEMBL2163299, “Cytotoxic effects of combination of oxidosqualene cyclase inhibitors with atorvastatin in human cancer cells” (J Med Chem, 2012)
Calls of active or inactive are those of the source. The rule behind the calls is not given here.

Key:
LN-229 [1] = experiment: Cytotoxicity against human LN229 cells at 2 uM after 72 hrs by MTT assay in presence of atorvastatin; assay type: functional, cell-based
LN-229 [2] = experiment: Induction of [14C]acetate incorporation in human LN229 cells at 2 uM after 24 hrs by Beta-counting in presence of 2.5 to 10 uM atorvastatin; assay type: functional, cell-based
[3] = (§1) Cytotoxicity against human LN229 cells assessed as reduction in cell survival after 72 hrs by MTT assay; assay type: functional, cell-based; conditions: LN-229, 72 h
LN-229 [4] = experiment: as §1; assay type: functional, cell-based
LN-229 [5] = experiment: Inhibition of DNA synthesis in human LN229 cells assessed as inhibition of tritiated thymidine incorporation at 1 to 3 uM after 24 hrs by beta counting; assay type: functional, cell-based
LN-18 [6] = experiment: Inhibition of DNA synthesis in human LN18 cells assessed as inhibition of tritiated thymidine incorporation at 1 to 3 uM after 24 hrs by beta counting; assay type: functional, cell-based
[7] = (§2) Cytotoxicity against human LN18 cells assessed as reduction in cell survival after 72 hrs by MTT assay; assay type: functional, cell-based; conditions: LN-18, 72 h
LN-18 [8] = experiment: as §2; assay type: functional, cell-based
LN-18 [9] = experiment: Induction of [14C]acetate incorporation in human LN18 cells at 2 uM after 24 hrs by Beta-counting in presence of 2.5 to 10 uM atorvastatin; assay type: functional, cell-based
LN-18 [10] = experiment: Cytotoxicity against human LN18 cells at 2 to 4 uM after 72 hrs by MTT assay in presence of atorvastatin; assay type: functional, cell-based
[11] = Cytotoxicity against human HCEC cells assessed as cell death at 4 to 10 uM after 72 hrs by MTT assay in presence of atorvastatin; assay type: cell-based
[12] = Chemical stability of compound at pH 4.0 after 24 hrs; assay type: physicochemical; conditions: buffer, pH 4, 24 h
[13] = Cytotoxicity against human Me300 cells after 72 hrs by MTT assay; assay type: functional, cell-based; conditions: Me300, 72 h
physchem = conditions: 1-octanol/TAPSO buffer, pH 7.4
Description: 1-Octanol-TAPSO buffer distribution coefficient, log D of the compound at pH 7.4 by shake-flask method

KB = experiment: Cytotoxicity against human KB cells after 72 hrs by MTT assay; assay type: functional, cell-based
[14] = Cytotoxicity against human LNZ308 cells after 72 hrs by MTT assay; assay type: functional, cell-based; conditions: LNZ308, 72 h
OVCAR = experiment: Cytotoxicity against human OVCAR cells after 72 hrs by MTT assay; assay type: functional, cell-based
cells = conditions: Homo sapiens, HCEC, 72 h
Description: Cytotoxicity against human HCEC cells assessed as reduction in cell survival after 72 hrs by MTT assay

[15] = Chemical stability of compound at pH 7.4 after 24 hrs; assay type: physicochemical; conditions: buffer, pH 7.4, 24 h
MCF7 = experiment: cells; conditions: Homo sapiens, MCF7, 72 h
Description: Cytotoxicity against human MCF7 cells after 72 hrs by MTT assay

LNCaP = experiment: Cytotoxicity against human LNCAP cells after 72 hrs by MTT assay; assay type: functional, cell-based
HeLa = experiment: cells; conditions: Homo sapiens, 72 h
Description: Cytotoxicity against human HeLa cells after 72 hrs by MTT assay

Caco-2 = experiment: cells; conditions: Homo sapiens, Caco-2, 72 h
Description: Cytotoxicity against human Caco2 cells after 72 hrs by MTT assay

LN-18 [16] = experiment: Induction of [14C]acetate incorporation in human LN18 cells at 2 uM after 24 hrs by Beta-counting; assay type: functional, cell-based
[17] = pampa, pH 6.5
Description: Permeability of compound at pH 6.5 assessed as compound binding to lipid membrane by PAMPA

LN-229 [18] = experiment: Induction of [14C]acetate incorporation in human LN229 cells at 2 uM after 24 hrs by Beta-counting; assay type: functional, cell-based
in vitro = conditions: pampa, pH 6.5
Description: Apparent permeability of compound at pH 6.5 by PAMPA

A549 = experiment: Cytotoxicity against human A549 cells after 72 hrs by MTT assay; assay type: functional, cell-based; conditions: A549, 72 h
LN-229 [19] = experiment: Cytotoxicity against human LN229 cells at 4 to 10 uM after 72 hrs by MTT assay; assay type: functional, cell-based
[20] = Cytotoxicity against human HCEC cells at 2 to 10 uM after 72 hrs in by MTT assay in presence of atorvastatin; assay type: cell-based
LN-229 [21] = experiment: Cytotoxicity against human LN229 cells at 4 to 10 uM after 72 hrs by MTT assay in presence of atorvastatin; assay type: functional, cell-based
LN-18 [22] = experiment: Cytotoxicity against human LN18 cells at 2 to 10 uM after 72 hrs by MTT assay in presence of atorvastatin; assay type: functional, cell-based
[23] = Cytotoxicity against human LN229 cells assessed as decrease in cell survival at 2 uM after 72 hrs by MTT assay in presence of 2.5 uM atorvastatin; assay type: functional, LN-229
Lanosterol synthase = molecular target: T1, Lanosterol synthase (Homo sapiens, UniProt P48449); experiment: Inhibition of human liver microsome 2,3-OSC after 1 hr by Silica gel plate phosphor imaging
T1 sequence (P48449 whole entry): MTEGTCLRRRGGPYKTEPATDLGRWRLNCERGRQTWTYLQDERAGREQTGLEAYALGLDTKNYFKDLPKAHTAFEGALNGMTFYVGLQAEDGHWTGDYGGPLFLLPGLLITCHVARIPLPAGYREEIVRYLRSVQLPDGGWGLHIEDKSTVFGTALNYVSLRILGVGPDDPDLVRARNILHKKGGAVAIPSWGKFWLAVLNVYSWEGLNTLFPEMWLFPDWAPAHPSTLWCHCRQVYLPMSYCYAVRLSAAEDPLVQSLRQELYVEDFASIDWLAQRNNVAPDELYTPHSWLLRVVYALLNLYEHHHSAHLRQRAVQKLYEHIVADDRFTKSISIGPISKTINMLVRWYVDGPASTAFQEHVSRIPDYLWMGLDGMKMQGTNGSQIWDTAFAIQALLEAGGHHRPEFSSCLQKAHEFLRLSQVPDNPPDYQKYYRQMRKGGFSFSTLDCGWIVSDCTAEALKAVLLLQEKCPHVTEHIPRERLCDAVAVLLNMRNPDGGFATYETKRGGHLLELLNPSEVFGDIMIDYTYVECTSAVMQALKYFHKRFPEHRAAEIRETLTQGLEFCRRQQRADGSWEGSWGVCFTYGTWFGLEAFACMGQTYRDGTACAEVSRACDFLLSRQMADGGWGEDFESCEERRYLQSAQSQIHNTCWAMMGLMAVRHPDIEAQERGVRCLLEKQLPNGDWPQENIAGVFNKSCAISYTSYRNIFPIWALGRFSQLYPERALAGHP

LN-18 [24] = experiment: Cytotoxicity against human LN18 cells after 72 hrs by MTT assay in presence of atorvastatin; assay type: functional, cell-based

| SMILES | IC50 [3] | Activity (LN-229 [4]) | inhibition (LN-229 [5]) | inhibition (LN-18 [6]) | IC50 [7] | Activity (LN-18 [8]) | Stability [12] | IC50 [13] | logD (physchem) | IC50 (KB) | IC50 [14] | IC50 (OVCAR) | IC50 (cells) | Stability [15] | IC50 (MCF7) | IC50 (LNCaP) | IC50 (HeLa) | IC50 (Caco-2) | permeability [17] | Papp (in vitro) | further results |
| --- | --- | --- | --- | --- | --- | --- | --- | --- | --- | --- | --- | --- | --- | --- | --- | --- | --- | --- | --- | --- | --- |
| C=CCN(C)CCCCCCOc1ccc(C(=O)c2ccc(Br)cc2)c(F)c1.O=C(O)/C=C/C(=O)O | 8.8 µM | Dose-dependent effect | Active | Active | 6.1 µM | Dose-dependent effect | Stable | > 30 µM | 3.92 | 2.88 µM | 5.26 µM | > 30 µM | 3.8 µM | Stable | 6.77 µM | > 30 µM | 2.89 µM | 2.99 µM | 20% | 0.12 ×10⁻⁶ cm/s | Activity (LN-229 [1]): Active; Activity (LN-229 [2]): inactive; Activity (LN-18 [9]): inactive; Activity (LN-18 [10]): Active; Activity [11]: Toxic; Activity (LN-18 [16]): Active; Activity (LN-229 [18]): Active; IC50 (A549): 11.3 µM |
| CCN(CCO)CCCCOc1ccc2c(-c3ccc(Br)cc3)nsc2c1.Cl | 2.9 µM | Dose-dependent effect | Active | Active | 2 µM | Dose-dependent effect | Stable | 6.2 µM | 3.39 | 4.66 µM | 4.7 µM | 16.7 µM | 2.2 µM | Stable | 5.58 µM | > 30 µM | 6.37 µM | 1.04 µM | 37% | 0.22 ×10⁻⁶ cm/s | Activity (LN-229 [2]): Active; Activity (LN-18 [9]): Active; Activity (LN-229 [19]): Active; Activity [20]: Non-toxic; Activity (LN-229 [21]): Active; Activity (LN-18 [22]): Active; Activity [23]: 80%; Activity (LN-18 [16]): Active; IC50 (Lanosterol synthase): 0.0178 µM; Activity (LN-229 [18]): Active; IC50 (A549): 5.14 µM |
| C=CCN(C)Cc1ccc(-c2ccc(C(=O)c3ccc(Br)cc3)cc2)cc1.Cl | 17.9 µM | Dose-dependent effect | Active | Active | 2.3 µM | Dose-dependent effect | Stable | 13.9 µM | 3.13 | 2.03 µM | 14.4 µM | > 30 µM | > 30 µM | Stable | 25.7 µM | 5.07 µM | 2.69 µM | 3.81 µM | 58% | 0.64 ×10⁻⁶ cm/s | Activity (LN-18 [24]): Active; IC50 (Lanosterol synthase): 0.008 µM; IC50 (A549): 6.19 µM |
